Drawing on PubChem BioAssay AID180 (DTP/NCI, 2004), this text covers T/C for 13 molecules.

The assay relates to BDF1 mice, Adenocarcinoma 755 s.c., tumor weight T/C. Nature of the assay: NCI In Vivo Anticancer Drug Screen. Data for tumor model Adenocarcinoma 755 (subcutaneous) in B6D2F1 (BDF1) mice. The note with it: endpoint: mean tumor weight, schedule: Q01DX011 (ip), higher = larger tumour. The gist of the method: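 Transplantable tumor implanted; mice dosed with compound or vehicle; survival or tumor size recorded; ratio of treated to vehicle control reported.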

Setting [1] is: dose: 40.0 mg/kg/injection, vehicle: carboxymethylcellulose (CMC).
Setting [2] is: dose: 50.0 mg/kg/injection, vehicle: carboxymethylcellulose (CMC).

Several values for one entry are separate records, joined by “and”; a condition that tells them apart may be missing. Equal entries are not always repeated.

As to `Cc1cc2nc3c(=O)[nH]c(=O)nc-3n(CCOC(=O)CCC(=O)O)c2cc1C`, the T/C reads like this: (dose: 29.46 mg/kg/injection, vehicle: carboxymethylcellulose (CMC)) 88 % of control; under setting [1], 91 % of control; (dose: 58.93 mg/kg/injection, vehicle: carboxymethylcellulose (CMC)) 94 % of control; (dose: 80.0 mg/kg/injection, vehicle: carboxymethylcellulose (CMC)) 122 % of control; (dose: 117.85 mg/kg/injection, vehicle: carboxymethylcellulose (CMC)) 93 % of control; (dose: 126.0 mg/kg/injection, vehicle: carboxymethylcellulose (CMC)) 107 % of control. Moreover, the T/C was 59 % of control (dose: 160.0 mg/kg/injection, vehicle: carboxymethylcellulose (CMC)); 90 % of control (dose: 235.7 mg/kg/injection, vehicle: carboxymethylcellulose (CMC)); 115 % of control (dose: 252.0 mg/kg/injection, vehicle: carboxymethylcellulose (CMC)).
Take `Nc1nc(N)c(N)c(Nc2ccc(Br)cc2)n1`: the T/C by setting is: (dose: 15.0 mg/kg/injection, vehicle: saline) 91 % of control; (dose: 31.0 mg/kg/injection, vehicle: saline) 32 % of control.
For the molecule `Cc1nc(N2CC2)nc(N2CC2)c1[N+](=O)[O-]`, the T/C reads like this: (dose: 0.6 mg/kg/injection, vehicle: methylcellulose (MC)) 47 % of control; (dose: 1.1 mg/kg/injection, vehicle: methylcellulose (MC)) 59 % of control; (dose: 2.25 mg/kg/injection, vehicle: methylcellulose (MC)) 12 % of control.
Turning to `Cc1cccc(Nc2c(N)nc(N)nc2N)c1`, the T/C runs as follows: (dose: 11.0 mg/kg/injection, vehicle: carboxymethylcellulose (CMC)) 50 % of control; (dose: 22.0 mg/kg/injection, vehicle: carboxymethylcellulose (CMC)) 61 % of control; (dose: 44.0 mg/kg/injection, vehicle: carboxymethylcellulose (CMC)) 32 % of control; (dose: 88.0 mg/kg/injection, vehicle: carboxymethylcellulose (CMC)) 48 % of control.
As for `CC(=O)C(CCC(=O)O)(CCC(=O)O)c1ccccc1`, the T/C reads like this: (dose: 30.0 mg/kg/injection, vehicle: other) 87 % of control; (dose: 60.0 mg/kg/injection, vehicle: other) 71 % of control; (dose: 120.0 mg/kg/injection, vehicle: other) 117 % of control; (dose: 240.0 mg/kg/injection, vehicle: other) 97 % of control.
For the molecule `C[N+](C)(C)c1ncnc2c1ncn2C1CCCCO1` (stereo unspecified), the T/C is, setting by setting: (dose: 33.0 mg/kg/injection, vehicle: saline) 58 % of control; (dose: 100.0 mg/kg/injection, vehicle: saline) 12 % of control.
As to `NC(=O)N(CCCl)N=O`, the T/C is, setting by setting: (dose: 0.23 mg/kg/injection, vehicle: methylcellulose (MC)) 54 % of control and 59 % of control; (dose: 0.9 mg/kg/injection, vehicle: methylcellulose (MC)) 34 % of control and 38 % of control; (dose: 1.8 mg/kg/injection, vehicle: methylcellulose (MC)) 27 % of control.
Consider `O=NN1CCN(N=O)CC1`, for which the T/C by setting is: (dose: 6.21 mg/kg/injection, vehicle: carboxymethylcellulose (CMC)) 76 % of control; (dose: 7.36 mg/kg/injection, vehicle: carboxymethylcellulose (CMC)) 69 % of control; (dose: 11.75 mg/kg/injection, vehicle: carboxymethylcellulose (CMC)) 98 % of control and 78 % of control; (dose: 12.43 mg/kg/injection, vehicle: carboxymethylcellulose (CMC)) 85 % of control; (dose: 14.72 mg/kg/injection, vehicle: carboxymethylcellulose (CMC)) 101 % of control; (dose: 18.8 mg/kg/injection, vehicle: carboxymethylcellulose (CMC)) 157 % of control. The T/C (dose: 23.5 mg/kg/injection, vehicle: carboxymethylcellulose (CMC)) is 69 % of control and 83 % of control; the T/C (dose: 23.56 mg/kg/injection, vehicle: carboxymethylcellulose (CMC)) was 88 % of control; the T/C (dose: 24.85 mg/kg/injection, vehicle: carboxymethylcellulose (CMC)) is 56 % of control; the T/C (dose: 29.45 mg/kg/injection, vehicle: carboxymethylcellulose (CMC)) is 99 % of control and 100 % of control; the T/C (dose: 31.33 mg/kg/injection, vehicle: carboxymethylcellulose (CMC)) was 57 % of control; the T/C (dose: 39.26 mg/kg/injection, vehicle: carboxymethylcellulose (CMC)) was 67 % of control. The T/C reads like this: under setting [1], 99 % of control; (dose: 45.0 mg/kg/injection, vehicle: carboxymethylcellulose (CMC)) 100 % of control; under setting [2], 86 % of control; (dose: 55.0 mg/kg/injection, vehicle: carboxymethylcellulose (CMC)) 102 % of control.
Turning to `O=C(CCBr)NCCNC(=O)CCBr`, the T/C was 15 % of control (dose: 50.0 mg/kg/injection, vehicle: methylcellulose (MC)) and 3 % of control (dose: 100.0 mg/kg/injection, vehicle: methylcellulose (MC)).
As for `Cc1cc(O)c(C(C)C)cc1S(=O)(=O)O` (tested in a mixture with another compound), the T/C is 78 % of control (dose: 25.0 mg/kg/injection, vehicle: carboxymethylcellulose (CMC)); 32 % of control (dose: 25.0 mg/kg/injection, vehicle: other); 53 % of control under setting [2]; 83 % of control (dose: 50.0 mg/kg/injection, vehicle: other); 49 % of control (dose: 100.0 mg/kg/injection, vehicle: carboxymethylcellulose (CMC)); 44 % of control (dose: 100.0 mg/kg/injection, vehicle: other). For the same molecule, the T/C runs as follows: (dose: 200.0 mg/kg/injection, vehicle: carboxymethylcellulose (CMC)) 42 % of control; (dose: 200.0 mg/kg/injection, vehicle: other) 7 % of control.
Consider `Nc1ncc2[nH]c(N)nc2n1`, for which the T/C was 58 % of control (dose: 25.0 mg/kg/injection, vehicle: methylcellulose (MC)) and 73 % of control (dose: 75.0 mg/kg/injection, vehicle: methylcellulose (MC)).
Turning to `Nc1ncnc2c1cnn2C1CCCCO1` (stereo unspecified), the T/C runs as follows: (dose: 1.75 mg/kg/injection, vehicle: methylcellulose (MC)) 74 % of control; (dose: 3.5 mg/kg/injection, vehicle: methylcellulose (MC)) 50 % of control; (dose: 7.0 mg/kg/injection, vehicle: methylcellulose (MC)) 21 % of control; (dose: 14.0 mg/kg/injection, vehicle: methylcellulose (MC)) 1 % of control.
On to `CN1Cc2c(ccc3c2OCO3)[C@@H]2[C@H](O)Cc3cc4c(cc3[C@@H]21)OCO4`, for which the T/C was 167 % of control (dose: 150.0 mg/kg/injection, vehicle: carboxymethylcellulose (CMC)) and 51 % of control (dose: 300.0 mg/kg/injection, vehicle: carboxymethylcellulose (CMC)).
